Experiments:
[1] = target: T1, Purified recombinant NBD1 (Homo sapiens, UniProt P13569); experiment: Aggregation analysis using differential static light scattering (DSLS): thermal stability of NBD1; assay type: binding; details: NBD1 0.2 mg/ml; Tagg of compound well minus average Tagg of DMSO control wells
T1 construct: Purified recombinant NBD1 was produced using previously described methods; made in house
Outline: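 Recombinant NBD1 at 0.2 mg/ml in Tris/NaCl/MgCl2 buffer with 2 mM ATP, 2 mM DTT, 1% glycerol, pH 7.6, was incubated with compound and heated at 1 °C/min to 70 °C while static light scattering was monitored. Tagg was taken from the curve inflection point and reported as ΔTagg relative to DMSO controls.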

[2] = tested on: Primary human bronchial epithelial cells from a ΔF508 homozygous CF donor (CF-HBE cells); experiment: TECC24 recording of CFTR-mediated transepithelial chloride transport, AUC fold over benchmark VX-809 @10 μM; assay type: cell-based; details: 48 hours incubation, AUC of forskolin-stimulated IEQ
Outline: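 CF-HBE cells on inserts were treated with compound for 48 h at 36.5 °C, then recorded in current-clamp with benzamil 10 μM, forskolin 10 μM, and finally CFTR inhibitor-172 20 μM in pH 7.4 Hepes saline. Equivalent Cl− current AUC between forskolin and inhibitor addition is expressed as a ratio to VX-809 AUC: A <3, B 3–6, C 6–20.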

T1 sequence (P13569 423-646 limits assumed): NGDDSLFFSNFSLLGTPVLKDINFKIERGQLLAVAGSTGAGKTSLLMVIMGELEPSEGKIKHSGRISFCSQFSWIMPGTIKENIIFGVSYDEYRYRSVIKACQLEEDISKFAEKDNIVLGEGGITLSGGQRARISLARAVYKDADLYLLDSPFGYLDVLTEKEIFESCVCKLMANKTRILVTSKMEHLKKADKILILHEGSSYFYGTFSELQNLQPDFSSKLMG

| Compound | DSLS (ΔTagg) [1] | TECC (test agent AUC divided by VX-809 AUC) [2] |
| --- | --- | --- |
| CN1CC(C)(C)CCCCC(C)(c2ccccc2)c2cnc([nH]2)-c2cc(ccc2F)Oc2c(F)cc3[nH]ccc3c2CCC1=O (stereo not drawn) [Compound 62, 24,30-Difluoro-6,11,11,13-tetramethyl-6-phenyl-26-oxa-3,13,21,32-tetrazapentacyclo[25.3.1.12,5.017,25.018,22]dotriaconta-1(31),2,4,17,19,22,24,27,29-nonaen-14-one] | A (an ΔTagg value less than or equal to 5 °C is marked “A”) | A (a TECC value less than 3 is marked “A”) |
| C[C@@H](Cc1cccc(C2(C)CCCC(C)(C)N(C)S(=O)(=O)CCc3c(c(F)cc4[nH]ccc34)Oc3ccc(F)c(c3)-c3nc2nn3C)c1)C(=O)O (single isomer, unassigned) [Compound 117B] | C (a value greater than 10 °C and less than or equal to 25 °C is marked “C”) | B (a value between 3 and 6 is marked “B”) |
| [2H]C([2H])([2H])n1nc2nc1-c1cc(ccc1F)Oc1c(F)cc3[nH]ccc3c1CCC(=O)N(C)CC(C)(C)CCCC2(C)c1cccc(CCC(=O)O)c1 (single isomer, unassigned) [Compound 77B, 3-[3-[23,29-difluoro-6,10,10,12-tetramethyl-13-oxo-3-(trideuteriomethyl)-25-oxa-3,4,12,20,31-pentazapentacyclo[24.3.1.12,5.016,24.017,21]-hentriaconta-1(30),2(31),4,16,18,21,23,26,28-nonaen-6-yl]phenyl]propanoic acid] | A (an ΔTagg value less than or equal to 5 °C is marked “A”) | A (a TECC value less than 3 is marked “A”) |
| CN1CC(C)(C)CCCC(C)(c2cccc(CC(=O)O)c2)c2cnc([nH]2)-c2cc(ccc2F)Oc2c(F)cc3[nH]ccc3c2CCC1=O (single isomer, unassigned) [Compound 65B, 2-[3-(23,29-difluoro-6,10,10,12-tetramethyl-13-oxo-25-oxa-3,12,20,31-tetrazapentacyclo-[24.3.1.12,5.016,24.017,21]hentriaconta-1(30),2,4,16,18,21,23,26,28-nonaen-6-yl)phenyl]acetic acid] | C (a value greater than 10 °C and less than or equal to 25 °C is marked “C”) | A (a TECC value less than 3 is marked “A”) |
| CN1CCCCC(C)(c2cccc(CCC(=O)O)c2)c2cnc([nH]2)-c2cc(ccc2F)Oc2c(F)cc3[nH]ccc3c2CC1=O (stereo not drawn) [Compound 68, 3-[3-(21,27-Difluoro-6,11-dimethyl-12-oxo-23-oxa-3,11,18,29-tetrazapentacyclo[22.3.1.12,5.014,22.015,19]nonacosa-1(28),2,4,14,16,19,21,24,26-nonaen-6-yl)phenyl]propanoic acid] | B (a value above 5 °C and less than or equal to 10 °C is marked “B”) | A (a TECC value less than 3 is marked “A”) |
| CN1CC(C)(C)CCCC(C)(c2ccc(CC(=O)O)cc2)c2cnc([nH]2)-c2cc(ccc2F)Oc2c(F)cc3[nH]ccc3c2CCC1=O (stereo not drawn) [Compound 63, 2-[4-(23,29-Difluoro-6,10,10,12-tetramethyl-13-oxo-25-oxa-3,12,20,31-tetrazapentacyclo[24.3.1.12,5.016,24.017,21]hentriaconta-1(30),2,4,16,18,21,23,26,28-nonaen-6-yl)phenyl]acetic acid] | B (a value above 5 °C and less than or equal to 10 °C is marked “B”) | A (a TECC value less than 3 is marked “A”) |
| CN1CC(C)(C)CCCC(C)(c2cccc(CCc3nnn[nH]3)c2)c2cnc([nH]2)-c2cc(ccc2F)Oc2c(F)cc3[nH]ccc3c2CCC1=O (stereo not drawn) [Compound 52, 23,29-Difluoro-6,10,10,12-tetramethyl-6-[3-[2-(1H-tetrazol-5-yl)ethyl]phenyl]-25-oxa-3,12,20,31-tetrazapentacyclo[24.3.1.12,5.016,24.017,21]-hentriaconta-1(30),2,4,16,18,21,23,26,28-nonaen-13-one] | C (a value greater than 10 °C and less than or equal to 25 °C is marked “C”) | A (a TECC value less than 3 is marked “A”) |
| CC1(C)CCCC(C)(c2cccc(CCC(=O)O)c2)c2cnc([nH]2)-c2cc(ccc2F)Oc2c(F)cc3[nH]ccc3c2CCC(=O)NC1 (single isomer, unassigned) [Compound 40A, 3-[3-(23,29-difluoro-6,10,10-trimethyl-13-oxo-25-oxa-3,12,20,31-tetrazapentacyclo-[24.3.1.12,5.016,24.017,21]hentriaconta-1(30),2,4,16,18,21,23,26,28-nonaen-6-yl)phenyl]propanoic acid] | A (an ΔTagg value less than or equal to 5 °C is marked “A”) | A (a TECC value less than 3 is marked “A”) |
| [2H]C([2H])([2H])C1(c2cccc(CCC(=O)O)c2)CCCC(C)(C)CN(C)C(=O)CCc2c(c(F)cc3[nH]ccc23)Oc2ccc(F)c(c2)-c2ncc1[nH]2 (single isomer, unassigned) [Compound 66A] | A (an ΔTagg value less than or equal to 5 °C is marked “A”) | A (a TECC value less than 3 is marked “A”) |
| CON(C)C(=O)CCc1cccc(C2(C)CCCC(C)(C)CN(C)C(=O)CCc3c(c(F)cc4[nH]ccc34)Oc3ccc(F)c(c3)-c3ncc2[nH]3)c1 (single isomer, unassigned) [Compound 60B, 3-[3-(23,29-difluoro-6,10,10,12-tetramethyl-13-oxo-25-oxa-3,12,20,31-tetrazapentacyclo-[24.3.1.12,5.016,24.017,21]hentriaconta-1(30),2,4,16,18,21,23,26,28-nonaen-6-yl)phenyl]-N-methoxy-N-methyl-propanamide] | B (a value above 5 °C and less than or equal to 10 °C is marked “B”) | B (a value between 3 and 6 is marked “B”) |
| CC1(C)CCC(C)(c2cccc(CCC(=O)O)c2)c2cnc([nH]2)-c2cc(ccc2F)Oc2c(F)cc3[nH]ccc3c2CCNC(=O)OC1 (stereo not drawn) [Compound 45, 3-[3-(23,29-Difluoro-6,9,9-trimethyl-12-oxo-11,25-dioxa-3,13,20,31-tetrazapentacyclo[24.3.1.12,5.016,24.017,21]hentriaconta-1(30),2,4,16(24),17(21),18,22,26,28-nonaen-6-yl)phenyl]propanoic acid] | C (a value greater than 10 °C and less than or equal to 25 °C is marked “C”) | B (a value between 3 and 6 is marked “B”) |
| CC1(c2ccccc2)CCCC2(CC2)CNC(=O)CCc2c(c(F)cc3[nH]ccc23)Oc2ccc(F)c(c2)-c2ncc1[nH]2 (stereo not drawn) [Compound 37, 23,29-Difluoro-6-methyl-6-phenyl-spiro[25-oxa-3,12,20,31-tetrazapentacyclo[24.3.1.12,5.016,24.017,21]hentriaconta-1(30),2,4,16,18,21,23,26,28-nonaene-10,1′-cyclopropane]-13-one] | A (an ΔTagg value less than or equal to 5 °C is marked “A”) | A (a TECC value less than 3 is marked “A”) |
| CN1CC2(CCCC(C)(c3ccccc3)c3cnc([nH]3)-c3cc(ccc3F)Oc3c(F)cc4[nH]ccc4c3CCC1=O)CC2 (stereo not drawn) [Compound 35, 23,29-Difluoro-6,12-dimethyl-6-phenyl-spiro[25-oxa-3,12,20,31-tetrazapentacyclo[24.3.1.12,5.016,24.017,21]hentriaconta-1(30),2,4,16,18,21,23,26,28-nonaene-10,1′-cyclopropane]-13-one] | A (an ΔTagg value less than or equal to 5 °C is marked “A”) | A (a TECC value less than 3 is marked “A”) |
| CC1(C)CCCC(C)(c2ccccc2)c2nnc([nH]2)-c2cc(ccc2F)Oc2c(F)cc3[nH]ccc3c2COC(=O)NC1 (stereo not drawn) [Compound 91, 23,29-Difluoro-6,10,10-trimethyl-6-phenyl-14,25-dioxa-3,4,12,20,31-pentazapentacyclo[24.3.1.12,5.016,24.017,21]hentriaconta-1(30),2,4,16(24),17(21),18,22,26,28-nonaen-13-one] | B (a value above 5 °C and less than or equal to 10 °C is marked “B”) | A (a TECC value less than 3 is marked “A”) |
| O=C(O)CCc1cccc(C2CCCCNC(=O)CCc3c(c(F)cc4[nH]ccc34)Oc3ccc(F)c(c3)-c3ncc2[nH]3)c1 (stereo not drawn) [Compound 3, 3-[3-(22,28-Difluoro-12-oxo-24-oxa-3,11,19,30-tetrazapentacyclo-[23.3.1.12,5.015,23.016,20]triaconta-1(29),2,4,15,17,20,22,25,27-nonaen-6-yl)phenyl]-propanoic acid] | C (a value greater than 10 °C and less than or equal to 25 °C is marked “C”) | B (a value between 3 and 6 is marked “B”) |
